Data: patent publication US4298739A, “Novel carbostyril derivatives” (priority 1977, dated 1981)

Tests used:
rabbit platelet [1] = test: Collagen-induced aggregation in rabbit platelets (AG-II Aggregometer); type: cell-based; conditions: Oryctolagus cuniculus, Platelet, read-out: Inhibition effect on collagen induced aggregation in rabbit platelet; for inhibition at 10 µM (stock): 10^-5 mole; for inhibition at 1 µM (stock): 10^-6 mole; for inhibition at 100 µM (stock): 10^-4 mole
Protocol: (§1) The platelet aggregation inhibitory effect is measured by using AG-II Aggregometer (manufactured by Bryston Manufacturing Co.). The blood sample used for the test is a 1/9 (by volume) mixture of sodium citrate and whole blood collected from rabbit. Said sample is subjected to 10-minute centrifugal separation at 1,000 r.p.m. to obtain a platelet rich plasma (PRP). The thus obtained PRP is separated, and the remaining blood sample is further subjected to 15-minute centrifugal separation at 3,000 r.p.m. to obtain a platelet poor plasma (PPP).
(§2) The number of platelets in the PRP is counted by the Brecher-Clonkite Method, and the PRP is diluted with the PPP to prepare a PRP sample with platelet concentration of 300,000/mm^3 for the adenosine diphosphate (ADP)-induced aggregation test. There is also prepared a PRP sample with platelet concentration of 450,000/mm^3 for the collagen-induced aggregation test.
(§3) 0.6 ml of said PRP sample is added into 0.01 ml of a solution of a test compound of a predetermined concentration and the mixture is placed in a 37° C. thermostat for one minute. Then 0.07 ml of an ADP or collagen solution is added to the mixture. Transmittance of this mixture is determined and the change of transmittance is recorded by using the aggregometer at stirrer speed of 1,100 r.p.m. In this test, Auren Beronal buffer (pH 7.35) is used for the preparation of the ADP or collagen solution. ADP is adjusted to a concentration of 7.5×10^-5 M, and the collagen solution is prepared by triturating 100 mg of collagen with 5 ml of said buffer and the supernatant is used as collagen inducer. Adenosine and acetylsalicylic acid are used as controls for the ADP-induced aggregation test and the collagen-induced aggregation test, respectively. The platelet aggregation inhibitory effect is measured in terms of percent inhibition with respect to the aggregation rate of the controls. The aggregation rate is calculated from the following formula:
(§4) Aggregation rate=(c-a)/(b-a)×100
(§5) b: transmittance of PRP containing a test compound and an aggregation inducer
(§6) The inhibitory effect of the tested compounds on collagen-induced aggregation in rabbit platelets is shown in Table 1, and such effect on ADP-induced aggregation is shown in Table 2. The compounds tested are as follows.

rabbit platelet [2] = test: ADP-induced aggregation in rabbit platelets (AG-II Aggregometer); type: cell-based; conditions: Oryctolagus cuniculus, Platelet, read-out: Inhibition effect on ADP-induced aggregation in rabbit platelet; for inhibition at 100 µM (stock): 10^-4 mole; for inhibition at 10 µM (stock): 10^-5 mole; for inhibition at 1 µM (stock): 10^-6 mole
Protocol: as §1, §2, §3, §4, §5, §6

[3] = Concentration in blood of male Wister rats; type: in vivo; conditions: rat, plasma, 30 mg/kg, 30 mg/kg water suspension
Protocol: (§7) A water suspension of test compound was administered at the dose of 30 mg/kg to the overnight fasted male Wister rats and male beagle dogs, and after a predetermined period of time, blood was collected from said animals to obtain plasma. 2 to 3 Milliliters of 0.1 N-NaOH and 2 ml of CHCl3 were added to 1 ml of the obtained plasma, and the mixture was shaken and extracted in a shaker for 2 hours, and after centrifugal separation, the organic layer was washed with 2 ml of 0.1 N-HCl. This organic layer was then subjected to a freezing and thawing treatment, and after evaporating chloroform under nitrogen stream, the residue was redissolved in 100 μl of chloroform and spotted on a thin layer plate of "Silica Gel 60 F254 " manufactured by Merck & Co., Inc. This was developed in a chloroform: butanol mixed solvent (5:1) and determined by measuring the spots with same Rf value as the test compound according to the absorbance method by using Shimazu CS-910 Thin Layer Chromato-scanner,and therefrom the concentration (μg/ml) of test compound A in blood was determined.

[4] = Concentration in blood of male beagle dogs; type: in vivo; conditions: dog, plasma, 30 mg/kg, 30 mg/kg water suspension
Protocol: as §7

[5] = Acute toxicity test, oral administration to mice; type: in vivo; conditions: mouse, in vivo, Male mice
Protocol: The test compounds were administered orally to the mice and LD50 (mg/kg) of the compounds was determined.

Row | SMILES | inhibition at 10 µM (stock) (rabbit platelet [1]) [%] | inhibition at 1 µM (stock) (rabbit platelet [1]) [%] | inhibition at 100 µM (stock) (rabbit platelet [2]) [%] | inhibition at 10 µM (stock) (rabbit platelet [2]) [%] | inhibition at 1 µM (stock) (rabbit platelet [2]) [%] | LD50 [5] [mg/kg] | inhibition at 100 µM (stock) (rabbit platelet [1]) [%] | also measured
1 | CC1CCCCC1N(C)C(=O)CCCOc1ccc2[nH]c(=O)ccc2c1 (centres unmarked) [compound 1, 6-{3-[N-Methyl-N-(2-methylcyclohexyl)aminocarbonyl]propoxy}carbostyril] | 100 | 100 | 100 | 73 | 42.4 | > 1000 |  | inhibition at 0.1 µM (stock) (rabbit platelet [1]; 10^-7 mole): 21.1%; inhibition at 0.1 µM (stock) (rabbit platelet [2]; 10^-7 mole): 4.3%; concentration at 1 h [3]: 1050 ng/mL; concentration at 2 h [3]: 1620 ng/mL; concentration at 4 h [3]: 940 ng/mL; concentration at 6 h [3]: 530 ng/mL; concentration at 12 h [3]: 480 ng/mL; concentration at 1 h [4]: 280 ng/mL; concentration at 2 h [4]: 310 ng/mL; concentration at 4 h [4]: 210 ng/mL; concentration at 6 h [4]: 130 ng/mL; concentration at 8 h [4]: 80 ng/mL; concentration at 12 h [4]: 50 ng/mL
2 | O=C(CCCOc1ccc2[nH]c(=O)ccc2c1)N(c1ccccc1)C1CCCCC1 [compound 17, 6-[3-(N-Cyclohexylanilinocarbonyl)propoxy]carbostyril] | 53.8 | 16.7 | 82.5 | 38.7 | 12.3 | > 1000 | 91.5 | 
3 | O=C1CCc2cc(OCCCC(=O)N(C3CCCCC3)C3CCCCC3)ccc2N1 [compound 18, 6-[3-(N,N-Dicyclohexylaminocarbonyl)propoxy]-3,4-dihydrocarbostyril] | 59.4 | 50 | 86.4 | 37.5 | 12.6 | > 1000 | 87.5 | concentration at 1 h [3]: 1320 ng/mL; concentration at 2 h [3]: 1740 ng/mL; concentration at 4 h [3]: 1020 ng/mL; concentration at 6 h [3]: 690 ng/mL; concentration at 8 h ([3]; 8 hr.): 560 ng/mL; concentration at 12 h [3]: 420 ng/mL; concentration at 1 h [4]: 360 ng/mL; concentration at 2 h [4]: 230 ng/mL; concentration at 4 h [4]: 320 ng/mL; concentration at 6 h [4]: 170 ng/mL; concentration at 8 h [4]: 130 ng/mL; concentration at 12 h [4]: 60 ng/mL
4 | O=C(CCCOc1ccc2c(c1)CCC(=O)N2)Nc1ccccc1 [compound 19, 6-[3-(Anilinocarbonyl)propoxy]-3,4-dihydrocarbostyril] | 17.4 |  | 24.6 | 16.2 |  | > 1000 | 93.8 | 
5 | CCCCN(C(=O)CCCCOc1ccc2c(c1)CCC(=O)N2)C1CCCCC1 [compound 22, 6-[4-(N-Butyl-N-cyclohexylaminocarbonyl)buthoxy]-3,4-dihydrocarbostyril] | 78.5 | 28.7 | 71.5 | 32.7 | 10.5 | > 1000 | 85.6 | 
6 | O=C1CCc2cc(OCCCC(=O)N(c3ccccc3)c3ccccc3)ccc2N1 [compound 24, 6-[3-(N,N-Diphenylaminocarbonyl)propoxy]-3,4-dihydrocarbostyril] | 43.5 | 15.5 | 43.2 | 22.3 | 13.4 | > 1000 | 82.7 | 
7 | CC(C)(Oc1ccc2c(c1)CCC(=O)N2)C(=O)O [compound 38, 6-(1-Methyl-1-carboxyethoxy)-3,4-dihydrocarbostyril, reference compound] | 3 | 0 | 10 | 5 | 3 | 800 to 1000 | 5 | 
8 | O=C(O)CCCOc1ccc2[nH]c(=O)ccc2c1 [compound 39, 6-(3-Carboxypropoxy)carbostyril, reference compound] | 15 | 0 | 52 | 23 | 5 | > 1000 | 28 | 
9 | O=C1CCc2cc(OCCCC(=O)OC3CCCCC3)ccc2N1 [compound 40, 6-(3-Cyclohexyloxycarbonylpropoxy)-3,4-dihydrocarbostyril, reference compound] | 8 | 0 | 28 | 16 | 7 | 500 to 800 | 12 | 
10 | CC(C)NC(=O)CCOc1cccc2c1CCC(=O)N2 [compound 41, 5-(N-Isopropylaminocarbonylethoxy)-3,4-dihydrocarbostyril, reference compound] |  | 0 | 18 | 13 | 7 | 500 to 800 | 17 | 
11 | O=C1CCc2c(cccc2OCC(=O)N2CCOCC2)N1 [compound 42, 5-(Morpholinocarbonylmethoxy)-3,4-dihydrocarbostyril, reference compound] | 0 | 0 | 13 | 6 | 0 | 400 to 600 | 5 | 
12 | CN(C)C(=O)COc1cccc2c1CCC(=O)N2 [compound 43, 5-(N,N-dimethylaminocarbonylmethoxy)-3,4-dihydrocarbostyril, reference compound] | 13 | 0 | 22 | 17 | 8 | 500 to 700 | 27 | 
13 | CCN1C(=O)CCc2c(OCCCC(=O)NCc3ccccc3)cccc21 [compound 44, 1-Ethyl-5-[3-(N-benzylaminocarbonyl)propoxy]-3,4-dihydrocarbostyril, reference compound] | 0 | 0 | 14 | 6 | 0 | 500 to 600 | 7 | 
14 | CCCNC(=O)CC(C)COc1ccc2c(c1)CCC(=O)N2 (centres unmarked) [compound 45, 6-[3-(N-Propylaminocarbonyl)-2-methylpropoxy]-3,4-dihydrocarbostyril, reference compound] | 5 | 0 | 32 | 17 | 9 | 500 to 800 | 12 | 
